This passage reports inhibition results from patent EP3212201B1, “NUCLEOSIDE KINASE INHIBITORS” (BCI Pharma, priority 2014, dated 2016).

Each structure is given as a SMILES string.

What all share (assay): FRET-based coupled-enzyme protein kinase inhibition assay
What all share (type): biochemical
Settings in all cases: compound at 10 µM, 1% DMSO

For test [1], the target named is MAPK3 (ERK1) (Homo sapiens, UniProt P27361). Here is the method: (§1) A biochemical assay was then performed in order to measure the protein kinase inhibition. It employed a fluorescence-based coupled-enzyme format and was based on the differential sensitivity of phosphorylated and non-phosphorylated peptides to proteolytic cleavage.
Chain of MAPK3 (ERK1) (P27361 whole entry, species assumed): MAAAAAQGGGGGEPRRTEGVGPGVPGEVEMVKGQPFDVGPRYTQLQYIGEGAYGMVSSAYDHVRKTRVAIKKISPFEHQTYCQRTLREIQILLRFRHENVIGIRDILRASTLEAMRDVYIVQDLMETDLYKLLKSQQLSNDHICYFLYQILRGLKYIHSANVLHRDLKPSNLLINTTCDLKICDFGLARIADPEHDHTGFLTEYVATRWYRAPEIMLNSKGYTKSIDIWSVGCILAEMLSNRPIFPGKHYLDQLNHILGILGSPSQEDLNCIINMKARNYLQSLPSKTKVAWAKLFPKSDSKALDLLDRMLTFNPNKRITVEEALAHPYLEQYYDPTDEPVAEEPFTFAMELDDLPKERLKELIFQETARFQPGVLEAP
(§2) Peptide substrates were labeled with two fluorophores. The two fluorohores used were coumarin (donor) and fluorecein (acceptor), and each of the peptides was bearing one at one end, and one at the other end, which made up fluorescence resonance energy transfer (FRET) pair peptides.
(§3) In a primary reaction, the FRET-peptides were submitted to a phosphorylation reaction, in which one of adenosine triphosphate (ATP)'s phosphate groups was transferred to the peptide in the presence of kinase. When kinase inhibition takes place, the peptide will not be phosphorylated. In a secondary reaction, both the phosphorylated FRET-peptides and the non-phosphorylated FRET-peptides were reacted with a development reagent. It has been observed that non-phosphorylated FRET-peptides were cleaved, whereas the phosphorylted FRET-peptide remained intact.
(§4) Cleavage disrupts FRET between the donor (i.e., coumarin) and acceptor (i.e., fluorescein) fluorophores on the FRET-peptide, whereas uncleaved, phosphorylated FRET-peptides maintain FRET. A ratiometric method, which calculates the Emission Ratio of donor emission to acceptor emission after excitation of the donor fluorophore at 400 nm, is used to quantitate reaction progress, as shown in the equation below. [formula]
(§5) A significant benefit of this ratiometric method for quantitating reaction progress is the elimination of well-to-well variations in FRET-peptide concentration and signal intensities. As a result, the assay yields very high Z'factor values (>0.7) at a low percent phosphorylation. Both cleaved and uncleaved FRET-peptides contribute to the fluorescence signals and therefore to the Emission Ratio. The extent of phosphorylation of the FRET-peptide can be calculated from the Emission Ratio. The Emission Ratio will remain low if the FRET-peptide is phosphorylated (i.e., no kinase inhibition) and will be high if the FRET-peptide is non-phosphorylated (i.e., kinase inhibition).
(§6) The Test Compounds were screened in 1% DMSO. For 10 point titrations, 3-fold serial dilutions were prepared from the starting concentration.
(§7) All Peptide/Kinase Mixtures were diluted to a 2X working concentration in the appropriate Kinase Buffer (50 mM HEPES pH 7.5, 0.01% BRIJ-35, 10 mM MgCl2, 1 mM […]).
(§8) All ATP Solutions were diluted to a 4X working concentration in Kinase Buffer. ATP Km apparent was previously determined using another assay.
(§9) 2.5 µL - 4X Test Compound or 100 nL 100X plus 2.4 µL kinase buffer were mixed together with 2. 5 µL - 2X Peptide/Kinase Mixture and 3. 2.5 µL - 4X ATP Solution.
(§10) The solution was plate-shaked for 30 seconds, then incubated 60 minutes at room temperature for kinase reaction. 5 µL of Development Reagent Solution were then added, followed by a 30-second plate shake and a 60-minute Development Reaction incubation at room temperature. The results were read on a fluorescence plate reader and the data was analyzed.
(§11) The compounds that show the highest Emission Ratio are the ones that also show the highest protein kinase inhibition properties.

The target in test [2] is T1, FLT3 (Homo sapiens, UniProt P36888).
T1 sequence (P36888 27-993): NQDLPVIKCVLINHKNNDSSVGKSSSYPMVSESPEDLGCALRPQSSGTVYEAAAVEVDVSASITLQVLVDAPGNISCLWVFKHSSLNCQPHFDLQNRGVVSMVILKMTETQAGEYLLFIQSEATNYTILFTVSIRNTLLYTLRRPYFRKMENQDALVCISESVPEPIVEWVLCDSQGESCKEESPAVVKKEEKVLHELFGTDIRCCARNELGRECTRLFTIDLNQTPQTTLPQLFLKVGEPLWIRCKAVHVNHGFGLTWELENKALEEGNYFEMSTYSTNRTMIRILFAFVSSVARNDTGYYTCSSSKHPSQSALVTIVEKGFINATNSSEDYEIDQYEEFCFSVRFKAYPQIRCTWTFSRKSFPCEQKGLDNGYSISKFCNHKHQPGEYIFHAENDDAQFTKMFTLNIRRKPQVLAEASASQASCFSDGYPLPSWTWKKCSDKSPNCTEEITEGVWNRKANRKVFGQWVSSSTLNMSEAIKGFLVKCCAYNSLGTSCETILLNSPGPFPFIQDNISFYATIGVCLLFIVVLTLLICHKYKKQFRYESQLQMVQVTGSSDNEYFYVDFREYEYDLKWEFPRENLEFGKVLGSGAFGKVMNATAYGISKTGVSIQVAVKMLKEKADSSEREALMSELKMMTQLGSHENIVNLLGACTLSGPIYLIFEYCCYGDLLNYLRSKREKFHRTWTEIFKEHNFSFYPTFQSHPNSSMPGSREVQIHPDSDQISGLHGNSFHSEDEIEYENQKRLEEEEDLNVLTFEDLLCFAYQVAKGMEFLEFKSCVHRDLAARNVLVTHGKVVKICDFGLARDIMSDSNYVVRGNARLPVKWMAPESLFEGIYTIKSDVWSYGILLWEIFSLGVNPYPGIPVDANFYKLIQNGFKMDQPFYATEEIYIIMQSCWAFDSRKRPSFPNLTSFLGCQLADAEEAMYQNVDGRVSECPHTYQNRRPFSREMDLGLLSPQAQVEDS
The protocol:
as §1, §2, §3, §4, §5, §6, §7, §8, §9, §10, §11

Test [3] deals with T2, ACVR1B (ALK4) (Homo sapiens, UniProt P36896).
T2 sequence (P36896 24-505): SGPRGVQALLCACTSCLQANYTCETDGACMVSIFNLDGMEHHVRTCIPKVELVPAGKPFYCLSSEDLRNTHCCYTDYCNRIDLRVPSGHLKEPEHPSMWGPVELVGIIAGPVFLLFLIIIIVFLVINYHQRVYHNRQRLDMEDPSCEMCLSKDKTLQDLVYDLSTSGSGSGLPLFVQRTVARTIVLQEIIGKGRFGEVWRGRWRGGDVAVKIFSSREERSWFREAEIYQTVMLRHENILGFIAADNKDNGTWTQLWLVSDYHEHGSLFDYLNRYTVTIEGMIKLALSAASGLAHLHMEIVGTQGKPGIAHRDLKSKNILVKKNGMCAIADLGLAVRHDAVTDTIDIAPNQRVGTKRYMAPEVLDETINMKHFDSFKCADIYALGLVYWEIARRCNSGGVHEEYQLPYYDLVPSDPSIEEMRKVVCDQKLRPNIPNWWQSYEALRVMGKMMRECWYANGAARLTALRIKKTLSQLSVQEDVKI
Here is the method:
as §1, §2, §3, §4, §5, §6, §7, §8, §9, §10, §11

Broadly, the inhibition is the change of the read-out against control, counted positive when it falls. As for `Nc1ncnc2c1ncn2[C@@H]1O[C@H](COC(=O)NCCCc2nc3ccccc3[nH]2)[C@@H](O)[C@H]1O` [Compound C1], the inhibition at 10 µM in test [1] was found to be 5%; in test [2] it was 6%; in test [3] it was 2%.
Consider `C[C@@H](NC(=O)OC[C@H]1O[C@@H](n2cnc3c(N)ncnc32)[C@H](O)[C@@H]1O)c1ccc(Cl)cc1` [Compound C4], for which the inhibition at 10 µM stood at 6% in test [1], 19% in test [2] and 1% in test [3].
For `Nc1ncnc2c1ncn2[C@@H]1O[C@H](COC(=O)NC[C@H](O)CO)[C@@H](O)[C@H]1O` [Compound C8], the inhibition at 10 µM was 12% in test [1], 12% in test [2] and 0% in test [3].
`Nc1ncnc2c1ncn2[C@@H]1O[C@H](COC(=O)N2CCC[C@H]2CO)[C@@H](O)[C@H]1O` [Compound C9]: the inhibition at 10 µM in test [1] was 5%; in test [2], 8%; in test [3], -5%.
The matching figures for `Nc1ncnc2c1ncn2[C@@H]1O[C@H](COC(=O)N[C@@H]2CCN(Cc3ccccc3)C2)[C@@H](O)[C@H]1O` [Compound C10]: 5%, 13% and 4%.
As for `Nc1ncnc2c1ncn2[C@@H]1O[C@H](COC(=O)N2CCN(Cc3ccccc3)CC2CO)[C@@H](O)[C@H]1O` (stereo partly drawn) [Compound C13], the inhibition at 10 µM in test [1] was 5%; in test [2] it was 12%; in test [3], 7%.
As for `CC(C)N1CCC(NC(=O)OC[C@H]2O[C@@H](n3cnc4c(N)ncnc43)[C@H](O)[C@@H]2O)CC1` [Compound C19], the inhibition at 10 µM amounted to 4% in test [1], 23% in test [2] and 6% in test [3].
Regarding `Nc1ncnc2c1ncn2[C@@H]1O[C@H](COC(=O)NCCN2CCCC2=O)[C@@H](O)[C@H]1O` [Compound C22], the inhibition at 10 µM in test [1] was 1%; in test [2] it was 9%; in test [3], 3%.
Turning to `Nc1ncnc2c1ncn2[C@@H]1O[C@H](COC(=O)N2CCN(CCc3ccccc3)CC2)[C@@H](O)[C@H]1O` [Compound C26], the inhibition at 10 µM in test [1] worked out at 8%; in test [2], 18%; in test [3], 0%.
Take `CN1CCN(CCNC(=O)OC[C@H]2O[C@@H](n3cnc4c(N)ncnc43)[C@H](O)[C@@H]2O)CC1` [Compound C46]: the results for the inhibition at 10 µM in test [1], in test [2] and in test [3] were 2%, 10% and 6%, respectively.
On to `Nc1ncnc2c1ncn2[C@@H]1O[C@H](COC(=O)N2CCC(Cc3ccc(F)cc3)C2)[C@@H](O)[C@H]1O` (stereo partly drawn) [Compound C66], for which the inhibition at 10 µM in test [1] was -2%; in test [2] it was 20%; in test [3], 1%.
As to `N#CCCN1CCN(C(=O)OC[C@H]2O[C@@H](n3cnc4c(N)ncnc43)[C@H](O)[C@@H]2O)CC1` [Compound C70], the inhibition at 10 µM worked out at 4% in test [1], 7% in test [2] and 1% in test [3].
`CN(C)CCNC(=O)OC[C@H]1O[C@@H](n2cnc3c(N)ncnc32)[C@H](O)[C@@H]1O` [Compound C85]: the values for the inhibition at 10 µM in test [1], in test [2] and in test [3] were 2%, 12% and 0%, respectively.
As to `Nc1ncnc2c1ncn2[C@@H]1O[C@H](COC(=O)N2CCN(C(=O)N3CCOCC3)CC2)[C@@H](O)[C@H]1O` [Compound C89], the inhibition at 10 µM in test [1] is 3%; in test [2] it was 10%; in test [3], 0%.
For the compound `CS(=O)(=O)N1CC2(CCN(C(=O)OC[C@H]3O[C@@H](n4cnc5c(N)ncnc54)[C@H](O)[C@@H]3O)CC2)c2ccccc21` [Compound C98], the inhibition at 10 µM was 8% in test [1], 13% in test [2] and -1% in test [3].
The matching figures for `Nc1ncnc2c1ncn2[C@@H]1O[C@H](COC(=O)N2CCS(=O)(=O)CC2)[C@@H](O)[C@H]1O` [Compound C100]: 10%, 9% and 3%.
